Measured values as given in patent US4562211A, “Pharmaceutically active 2-substituted-1-(omega-aminoalkoxy)benzenes” (Mitsubishi Chemical Industries, Ltd., priority 1976, dated 1985).
Structures can show the parent of a compound that is named as a salt.

Legend:
[1] = tested on: electroshock induced tonic extensor; assay: Anticonvulsant activity: antagonism of electroshock induced tonic extensor; type: in vivo; settings: Mus musculus, po; mice; p.o.; dose preventing 50% of response; read-out: Anti-Convulsant Activity ED50
[2] = tested on: neurological deficit as measured by traction test; assay: CNS depressant activity: muscle relaxant action, traction test; type: in vivo; settings: Mus musculus, po, mice
[3] = tested on: spontaneous motor activity; assay: CNS depressant activity: spontaneous motor activity depression (ANIMEX apparatus); type: in vivo; settings: Mus musculus, po, mice
tremorine induced tremor = assay: Central anticholinergic effect: antitremorine effect; type: in vivo; settings: Mus musculus, po, mice
[4] = tested on: reserpine (5 mg/kg i.p.) induced hypothermia; assay: Antireserpine activity in mice (antagonism of reserpine induced hypothermia), relative to Amitriptyline; type: in vivo; settings: Amitriptyline=1
Experimental: The 2-substituted-1-(omega-aminoalkoxy)benzenes and the acid addition salts thereof may be purified by recrystallization employing a suitable solvent such as alcohol-ether.
The compounds were administered intraperitoneally and the activities of the compounds were compared with those of Amitriptyline.

[5] = Acute toxicity in mice, LD50 (Litchfield-Wilcoxon); settings: mouse, in vivo, ip
Experimental: The compounds have been tested in mice for antidepressant, sedative, anticonvulsant and anticholinergic activity. The compounds were administered intraperitoneally and the activities of the compounds were compared with those of Amitriptyline.
LD50 was calculated by Litchfield-Wilcoxon method.

| SMILES | Antireserpine activity, Relative Potency [4] | LD50 [5] [mg/kg] | also measured |
| --- | --- | --- | --- |
| CNCCCCOc1ccccc1Cc1ccccc1O [No. 8, 2-(4-methylaminobutoxy)-2'-hydroxydiphenylmethane] | – | – | ED50 [1]: 190 mg/kg; ED50 [2]: 390 mg/kg; ED50 [3]: 175 mg/kg; ED50 (tremorine induced tremor): > 200 mg/kg |
| Cc1ccccc1Oc1ccccc1OCCCN(C)C [compound 13] | 0.95 | – | – |
| CN(C)CCC=C1c2ccccc2CCc2ccccc21 [Amitriptyline, reference compound] | – | 300 | ED50 [1]: 19 mg/kg; ED50 [2]: 40 mg/kg; ED50 [3]: 28 mg/kg; ED50 (tremorine induced tremor): 11 mg/kg |
| CNCCCOc1ccccc1Oc1ccccc1C [compound 12] | 1.12 | – | – |
| CCNCCCOc1ccccc1Oc1ccccc1C [compound 14] | 0.46 | – | – |
| CN(C)CCCCOc1ccccc1Cc1ccccc1O [compound 9] | 0.77 | – | – |
| CNCCCCOc1c(C)cccc1Cc1ccccc1 [No. 1, 2-(4-methylaminobutoxy)-3-methyldiphenylmethane hydrochloride] | 0.56 | 500 to 700 | – |
| CNCCCCOc1ccccc1Cc1ccc(C)cc1 [compound 4] | 0.44 | – | – |
| CNCCCCOc1ccccc1Cc1ccc(Cl)cc1 [compound 5] | 0.44 | – | – |
| CCOc1ccccc1Oc1ccccc1OCCCCNC [compound 10] | 0.90 | – | – |
| COc1ccc(Cc2ccccc2OCCCCN(CCO)CCO)cc1 [compound 6] | 0.44 | – | – |
| CNCCCCOc1ccccc1Oc1ccccc1C [compound 11] | 0.65 | – | – |
| CCN(CC)CCCOc1ccccc1Oc1ccccc1C [compound 15] | 0.44 | – | – |
| Cc1ccc(OCCCCN(C)C)c(Cc2ccccc2)c1 [compound 3] | 0.70 | 500 to 700 | – |
| Cc1cccc(Cc2ccccc2)c1OCCCCN(C)C [No. 2, 2-(4-dimethylaminobutoxy)-3-methyldiphenylmethane] | 0.66 | 500 to 700 | – |
| CNCCCCOc1ccccc1Cc1ccccc1OC [compound 7] | 0.85 | 600 | – |
| Cc1ccccc1Oc1ccccc1OCCCN1CCCC1 [compound 16] | 0.42 | – | – |
| CNCCCCOc1ccccc1Cc1ccccc1O [compound 8] | 1.00 | 600 to 700 | – |
